From patent US12552798B2, “Substituted imidazolecarboxamide as Bruton's tyrosine kinase inhibitors” (Henan Zhiwei Biomedicine Co., Ltd., priority 2019, dated 2026)
Read-outs that look alike come from different tables or passages of the source.

Legend:
[1] = target: BTK (Homo sapiens (Human), UniProt Q06187); assay: BTK kinase inhibitory assay (ELISA); assay type: biochemical; details: 3 μmol/L ATP
Protocol: (§1) BTK, EGFR, BMX, or ITK Inhibitory Assay Procedure for BTK, BMX, EGFR and ITK Inhibitory Assay:
(§2) Kinase inhibitory activities of compounds were evaluated using the Enzyme-linked immunosorbent assay (ELISA). The kinase enzyme of BTK, BMX, EGFR and ITK were purchased from Carna Bioscience (Kobe, Japan). A total of 10 ng/mL antiphosphotyrosine (PY713) antibody (abcam, Cambridge Science Park, UK) was precoated in 96-well ELISA plates. The kinase enzymes in each reaction well were set to BTK (101.25 ng/mL), BMX (90 ng/mL), EGFR (90 ng/mL) or ITK (120 ng/mL) and incubated with indicated compounds in 1× reaction buffer (50 mmol/L HEPES pH 7.4, 20 mmol/L MgCl2, 0.1 mmol/L MnCl2, 1 mmol/L DTT) containing 20 μmol/L (the final concentration of substrate in ITK reaction was 30 μmol/L) substrate (NH2-ETVYSEVRK-biotin) at 25° C. for 1 h. Then, a total of 3 μmol/L ATP was added and the reaction was continued for 2 hrs. The products of reaction were transferred into 96-well ELISA plates containing antibody and incubated at 25° C. for 30 min. After incubation, the wells were washed with PBS and then incubated with horseradish peroxidase […]-conjugated streptavidin. The wells were visualized using 3,3′,5,5′-tetramethylbenzidine (TMB), and chromogenic reaction was ended with 2 mol/L H2SO4, the absorbance was read with a multimode plate reader (PerkinElmer, USA) at 450 nm. IC50 values and curve fits were obtained using Prism (GraphPad Software).

[2] = PK properties assay in SD rats; assay type: in vivo; details: rat, plasma
Protocol: Six SD rats were divided into two groups, and compound was administered by gavage and tail vein injection. The intravenous injection group was administered 2 min, 5 min, 15 min, 30 min, 1 h, 2 h, 4 h, 6 h, 8 h, and 12 h after administration. 0.25 mL of blood samples were collected from the posterior orbital venous plexus at 5 min, 15 min, 30 min, 1 h, 2 h, 4 h, 6 h, 8 h, 12 h, and 24 h after administration. LC-MS/MS method was used to determine the concentration of compound in plasma samples from SD rats, and the pharmacokinetic parameters were calculated using WinNolin software.

[3] = test system: 293T; assay: Cell antiproliferative activity assay (CellTiter-Glo), 293T; assay type: cell-based; details: 72 hs, read-out: Cell Growth IC50 (nM) 293T
Protocol: (§3) Cell Antiproliferative Activity Assay
(§4) Cell antiproliferative activity was evaluated by the CellTiter-Glo (Promega, USA) assay. Make 1000× compounds solution in DMSO, add 1 μl 1000× compounds to […] growth medium to make 20× compounds. Dilute cell suspensions in growth medium to desired density and 95 μl were taken to 96-well plate. Add 5 μl 20× compounds into 96-well plate according to the plate map. Final DMSO concentration in each well was 0.1%. Then the cell was incubated at 37° C., 5% CO2 for 72 hs. Equilibrate the assay plate to room temperature before measurement. Add 20 μl of CellTiter-Glo© Reagent into each well. Mix contents for 2 minutes on an orbital shaker to induce cell lysis. Incubate at room temperature for 10 minutes to stabilize luminescent signal. Record luminescence using EnVision Multilabel Reader (PerkinElmer). Cell viability (CV %) was calculated relative to vehicle (DMSO) treated control wells using following formula: Cell viability (%)=(RLU compound−RLU blank)/(RLU control−RLU blank)*100%. The IC50 values were calculated using GraphPad Prism 6.0 software, fitting to a 4-parameter equation to generate concentration response curves. All assays were conducted with three parallel samples and three repetitions.

[4] = target: BMX (Homo sapiens (Human), UniProt P51813); assay: BMX kinase inhibitory assay (ELISA); assay type: biochemical; details: for Selectivity Ratio (BTK and BMX): BMX IC50 relative to BTK IC50; for IC50: ELISA, 3 μmol/L ATP
Protocol: as §1, §2

[5] = target: ITK (Homo sapiens (Human), UniProt Q08881); assay: ITK kinase inhibitory assay (ELISA); assay type: biochemical; details: for IC50: ELISA, 3 μmol/L ATP; for Selectivity Ratio (BTK and ITK): ITK IC50 relative to BTK IC50
Protocol: as §1, §2

[6] = target: EGFR (Homo sapiens (Human), UniProt P00533); assay: EGFR kinase inhibitory assay (ELISA); assay type: biochemical; details: for Selectivity Ratio (BTK and EGFR): EGFR IC50 relative to BTK IC50; for IC50: ELISA, 3 μmol/L ATP
Protocol: as §1, §2

[7] = test system: TMD8; assay: Cell antiproliferative activity assay (CellTiter-Glo), TMD8; assay type: cell-based; details: read-out: Cell Growth IC50 (nM) TMD8
Protocol: as §3, §4

[8] = test system: Ramos; assay: Cell antiproliferative activity assay (CellTiter-Glo), Ramos; assay type: cell-based; details: 72 hs, read-out: Cell Growth IC50 (nM) Ramos
Protocol: as §3, §4

[9] = test system: MOLM-13; assay: Cell antiproliferative activity assay (CellTiter-Glo), MOLM-13; assay type: cell-based; details: Homo sapiens; MOLM-13, 72 hs; read-out: Cell Growth IC50 (nM) MOLM-13
Protocol: as §3, §4

Sequence of ITK (Q08881 whole entry): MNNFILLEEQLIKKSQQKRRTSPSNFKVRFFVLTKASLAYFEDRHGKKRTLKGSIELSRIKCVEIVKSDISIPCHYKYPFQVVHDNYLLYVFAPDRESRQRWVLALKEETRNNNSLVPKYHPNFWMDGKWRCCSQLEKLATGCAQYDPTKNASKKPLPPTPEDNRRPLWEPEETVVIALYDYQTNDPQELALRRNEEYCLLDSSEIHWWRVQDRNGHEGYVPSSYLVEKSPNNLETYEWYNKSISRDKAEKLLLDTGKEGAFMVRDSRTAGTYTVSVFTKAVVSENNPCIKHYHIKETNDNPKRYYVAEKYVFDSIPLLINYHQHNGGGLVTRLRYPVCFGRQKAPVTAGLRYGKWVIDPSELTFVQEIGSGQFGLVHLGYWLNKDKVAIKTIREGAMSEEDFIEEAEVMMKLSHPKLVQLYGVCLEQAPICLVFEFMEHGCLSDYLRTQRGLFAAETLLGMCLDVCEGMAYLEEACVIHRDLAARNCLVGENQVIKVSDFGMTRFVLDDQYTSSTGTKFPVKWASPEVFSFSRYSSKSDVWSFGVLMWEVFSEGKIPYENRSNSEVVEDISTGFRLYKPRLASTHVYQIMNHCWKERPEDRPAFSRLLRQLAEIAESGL
Sequence of BMX (P51813 whole entry): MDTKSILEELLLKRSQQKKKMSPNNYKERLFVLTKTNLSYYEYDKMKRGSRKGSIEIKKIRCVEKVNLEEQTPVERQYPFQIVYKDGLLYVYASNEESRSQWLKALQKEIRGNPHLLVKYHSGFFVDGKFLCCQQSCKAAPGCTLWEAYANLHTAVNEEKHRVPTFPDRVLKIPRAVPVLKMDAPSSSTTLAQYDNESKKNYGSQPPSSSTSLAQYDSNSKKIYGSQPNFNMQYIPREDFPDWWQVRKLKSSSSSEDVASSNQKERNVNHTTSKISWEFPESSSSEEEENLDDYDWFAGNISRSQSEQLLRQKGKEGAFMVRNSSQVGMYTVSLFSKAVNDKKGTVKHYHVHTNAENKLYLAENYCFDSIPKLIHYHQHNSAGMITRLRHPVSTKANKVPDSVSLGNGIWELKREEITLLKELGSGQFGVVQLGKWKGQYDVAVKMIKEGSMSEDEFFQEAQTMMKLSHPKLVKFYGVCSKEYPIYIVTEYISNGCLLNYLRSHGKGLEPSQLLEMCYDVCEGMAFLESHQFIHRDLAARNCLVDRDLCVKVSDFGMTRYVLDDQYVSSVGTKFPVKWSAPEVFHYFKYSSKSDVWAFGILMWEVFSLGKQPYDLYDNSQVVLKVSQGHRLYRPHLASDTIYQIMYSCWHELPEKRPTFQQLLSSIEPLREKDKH
Sequence of BTK (Q06187 whole entry): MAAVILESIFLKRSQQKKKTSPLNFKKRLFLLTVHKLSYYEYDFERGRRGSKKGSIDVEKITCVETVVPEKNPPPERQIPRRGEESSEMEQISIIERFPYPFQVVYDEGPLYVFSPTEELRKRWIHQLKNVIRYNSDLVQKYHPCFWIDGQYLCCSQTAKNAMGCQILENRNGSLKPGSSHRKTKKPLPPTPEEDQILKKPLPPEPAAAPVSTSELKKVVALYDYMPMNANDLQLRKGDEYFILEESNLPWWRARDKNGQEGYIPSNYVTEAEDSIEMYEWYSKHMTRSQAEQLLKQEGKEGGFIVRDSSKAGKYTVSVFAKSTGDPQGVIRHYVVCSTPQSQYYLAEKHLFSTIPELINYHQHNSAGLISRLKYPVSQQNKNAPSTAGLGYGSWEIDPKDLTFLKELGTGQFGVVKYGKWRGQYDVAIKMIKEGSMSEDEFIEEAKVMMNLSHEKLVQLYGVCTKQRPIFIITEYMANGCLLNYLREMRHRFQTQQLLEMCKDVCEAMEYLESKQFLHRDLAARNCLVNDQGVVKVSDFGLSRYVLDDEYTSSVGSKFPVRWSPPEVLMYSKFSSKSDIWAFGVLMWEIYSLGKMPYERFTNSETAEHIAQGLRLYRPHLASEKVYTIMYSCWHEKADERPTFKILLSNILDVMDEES
Sequence of EGFR (P00533 25-1210): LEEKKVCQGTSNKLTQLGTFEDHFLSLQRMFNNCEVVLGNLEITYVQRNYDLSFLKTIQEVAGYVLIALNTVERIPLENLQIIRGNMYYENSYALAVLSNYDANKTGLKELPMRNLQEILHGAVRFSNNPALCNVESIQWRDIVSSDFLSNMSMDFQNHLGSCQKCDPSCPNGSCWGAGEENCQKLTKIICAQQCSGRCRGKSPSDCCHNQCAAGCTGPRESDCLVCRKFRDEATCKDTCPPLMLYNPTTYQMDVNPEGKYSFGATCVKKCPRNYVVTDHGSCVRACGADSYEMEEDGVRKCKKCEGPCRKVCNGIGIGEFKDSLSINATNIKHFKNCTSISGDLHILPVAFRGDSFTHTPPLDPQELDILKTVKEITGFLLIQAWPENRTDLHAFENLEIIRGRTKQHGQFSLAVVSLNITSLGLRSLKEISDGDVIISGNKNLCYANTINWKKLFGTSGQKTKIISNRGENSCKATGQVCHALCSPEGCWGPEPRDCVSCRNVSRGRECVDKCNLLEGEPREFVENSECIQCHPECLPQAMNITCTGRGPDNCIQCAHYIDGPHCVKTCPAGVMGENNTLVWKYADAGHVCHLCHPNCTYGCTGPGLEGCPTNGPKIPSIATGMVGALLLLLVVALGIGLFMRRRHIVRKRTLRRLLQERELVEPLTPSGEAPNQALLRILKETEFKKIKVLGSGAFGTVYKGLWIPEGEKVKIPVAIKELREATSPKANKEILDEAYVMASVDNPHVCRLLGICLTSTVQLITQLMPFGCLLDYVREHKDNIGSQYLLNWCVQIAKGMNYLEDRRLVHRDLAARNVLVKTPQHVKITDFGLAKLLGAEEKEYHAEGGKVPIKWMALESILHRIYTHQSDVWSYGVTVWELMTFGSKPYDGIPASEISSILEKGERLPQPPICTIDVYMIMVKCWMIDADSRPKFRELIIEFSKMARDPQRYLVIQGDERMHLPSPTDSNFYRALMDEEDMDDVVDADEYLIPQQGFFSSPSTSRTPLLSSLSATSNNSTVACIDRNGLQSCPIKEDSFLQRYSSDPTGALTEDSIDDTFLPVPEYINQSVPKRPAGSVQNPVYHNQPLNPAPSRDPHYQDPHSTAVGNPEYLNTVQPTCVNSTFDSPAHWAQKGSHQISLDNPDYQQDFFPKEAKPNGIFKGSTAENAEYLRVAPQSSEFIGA

Row | SMILES | IC50 [1] [µM] | Vd ([2]; iv 5 mg/kg) [L/kg] | clearance ([2]; iv 5 mg/kg) [mL/min/kg] | half-life ([2]; iv 5 mg/kg) [min] | AUC ([2]; po 5 mg/kg) [ng·h/mL] | Cmax ([2]; po 5 mg/kg) [ng/mL] | bioavailability ([2]; po 5 mg/kg) [%] | half-life ([2]; po 5 mg/kg) [min] | Selectivity Ratio (BTK and BMX) [4] | IC50 [4] [µM] | IC50 [5] [µM] | Selectivity Ratio (BTK and ITK) [5] | Selectivity Ratio (BTK and EGFR) [6] | IC50 [6] [µM] | IC50 [8] [nM] | IC50 [9] [nM] | IC50 ([8]; Homo sapiens) [nM] | IC50 ([3]; Homo sapiens, HEK-293T) [nM] | IC50 ([7]; TMD8, 72 hs) [nM] | other results
1 | C=CC(=O)N1CCC(C2CCNn3c2nc(-c2ccc(Oc4ccccc4)cc2)c3C(N)=O)CC1 (single isomer, unassigned) [1a (peak 1)] | 0.0026 | 0.959 | 27 | 24.6 | 3430 | 923 | 52.9 | 84.6 | 5.88 | 0.0153 | 0.483 | 185.6 | 2.00 | 0.0052 |  |  |  | 8450 | 5.4 | 
2 | C#CC(=O)N1CCC(C2CCNn3c2nc(-c2ccc(Oc4ccccc4)cc2)c3C(N)=O)CC1 (centres unmarked) [Example 11, 2-(4-phenoxyphenyl)-8-(1-propioloylpiperidin-4-yl)-5,6,7,8-tetrahydroimidazo[1,2-b]pyridazine-3-carboxamide] | 0.0082 |  |  |  |  |  |  |  | 2.78 | 0.0228 | 0.225 | 27.40 | 3.43 | 0.0281 |  | 1100 | 725 |  |  | 
3 | NC(=O)c1c(-c2ccc(Oc3ccccc3)cc2)nc2n1NCCC2C1CN(C(=O)/C=C/C(F)(F)F)C1 (centres unmarked) [Example 20, (E)-2-(4-phenoxyphenyl)-8-(1-(4,4,4-trifluorobut-2-enoyl)azetidin-3-yl)-5,6,7,8-tetrahydroimidazo[1,2-b]pyridazine-3-carboxamide] |  |  |  |  |  |  |  |  | 8.79 |  |  | 1080.6 | 405.5 |  |  | 1360 | 294 |  |  | 

Second part, led by results:

Row | IC50 [1] [µM] | Vd ([2]; iv 5 mg/kg) [L/kg] | clearance ([2]; iv 5 mg/kg) [mL/min/kg] | half-life ([2]; iv 5 mg/kg) [min] | AUC ([2]; po 5 mg/kg) [ng·h/mL] | Cmax ([2]; po 5 mg/kg) [ng/mL] | bioavailability ([2]; po 5 mg/kg) [%] | half-life ([2]; po 5 mg/kg) [min] | Selectivity Ratio (BTK and BMX) [4] | IC50 [4] [µM] | IC50 [5] [µM] | Selectivity Ratio (BTK and ITK) [5] | Selectivity Ratio (BTK and EGFR) [6] | IC50 [6] [µM] | IC50 [8] [nM] | IC50 [9] [nM] | IC50 ([8]; Homo sapiens) [nM] | SMILES | IC50 ([3]; Homo sapiens, HEK-293T) [nM] | IC50 ([7]; TMD8, 72 hs) [nM] | other results
4 | 0.0618 |  |  |  |  |  |  |  | 2.32 | 0.144 | > 30 | >485.4 | 638.75 | 39.5 | 6440 |  |  | NC(=O)c1c(-c2ccc(Oc3ccccc3)cc2)nc2n1NCCC2C1CCN(C(=O)/C=C/C(F)(F)F)CC1 (single isomer, unassigned) [10b (peak 2)] |  | 257 | IC50 [3]: 1910 nM
5 | 0.0082 |  |  |  |  |  |  |  | 6.04 | 0.0495 | 10.8 | 1314 | 235.36 | 1.93 |  |  | 2760 | NC(=O)c1c(-c2ccc(Oc3ccccc3)cc2)nc2n1NCCC2C1CCN(C(=O)/C=C/C(F)(F)F)CC1 (centres unmarked) [Example 10, 2-(4-Phenoxy-phenyl)-8-[1-(4,4,4-trifluoro-but-2-enoyl)-piperidin-4-yl]-5,6,7,8-tetrahydro-imidazo[1,2-b]pyridazine-3-carboxamide] | 45300 |  | IC50 ([7]; Homo sapiens, TMD8, TMD8, 72 hs): 51.6 nM
6 | 0.0067 | 1.6 | 59.8 | 18.6 | 1390 | 703 | 47.2 | 87 | 3.12 | 0.0209 | 2.02 | 301.5 | 365.37 | 2.45 | 1270 | 3150 |  | NC(=O)c1c(-c2ccc(Oc3ccccc3)cc2)nc2n1NCCC2C1CCN(C(=O)/C=C/C(F)(F)F)CC1 (single isomer, unassigned) [10a (peak 1)] | 1010 | 16.5 | 
